Laboratory results published in the supplement of paper PMC13380429.

Assays:
Details in all cases: 72 h
Caco-2 [1] = test: relative viability EC50 (midpoint between 100% and the lowest measured viability); higher = less toxic
HepG2 [2] = test: as above
Calu-3 [3] = test: as above
U2OS [4] = test: as above
Vero E6 [5] = test: as above
Caco-2 [6] = test: drug sensitivity score (DSS) for viability; higher = more toxic; extreme values may be limits of the assay
HepG2 [7] = test: as above
Calu-3 [8] = test: as above
U2OS [9] = test: as above
Vero E6 [10] = test: as above
Caco-2 [11] = test: cell viability relative to DMSO; higher = less toxic
HepG2 [12] = test: as above
Calu-3 [13] = test: as above
U2OS [14] = test: as above
Vero E6 [15] = test: as above

Structure (SMILES)	relative viability EC50 (Caco-2 [1]) [µM]	relative viability EC50 (HepG2 [2]) [µM]	relative viability EC50 (Calu-3 [3]) [µM]	relative viability EC50 (U2OS [4]) [µM]	relative viability EC50 (Vero E6 [5]) [µM]	drug sensitivity score (Caco-2 [6])	drug sensitivity score (HepG2 [7])	drug sensitivity score (Calu-3 [8])	drug sensitivity score (U2OS [9])	drug sensitivity score (Vero E6 [10])	cell viability (Caco-2 [11]; 1 nM) [%]	cell viability (Caco-2 [11]; 10 nM) [%]	cell viability (Caco-2 [11]; 100 nM) [%]	cell viability (Caco-2 [11]; 1000 nM) [%]	cell viability (Caco-2 [11]; 10000 nM) [%]	cell viability (HepG2 [12]; 1 nM) [%]	cell viability (HepG2 [12]; 10 nM) [%]	cell viability (HepG2 [12]; 100 nM) [%]	cell viability (HepG2 [12]; 1000 nM) [%]	cell viability (HepG2 [12]; 10000 nM) [%]	cell viability (Calu-3 [13]; 1 nM) [%]	cell viability (Calu-3 [13]; 10 nM) [%]	cell viability (Calu-3 [13]; 100 nM) [%]	cell viability (Calu-3 [13]; 1000 nM) [%]	cell viability (Calu-3 [13]; 10000 nM) [%]	cell viability (U2OS [14]; 1 nM) [%]	cell viability (U2OS [14]; 10 nM) [%]	cell viability (U2OS [14]; 100 nM) [%]	cell viability (U2OS [14]; 1000 nM) [%]	cell viability (U2OS [14]; 10000 nM) [%]	cell viability (Vero E6 [15]; 1 nM) [%]	cell viability (Vero E6 [15]; 10 nM) [%]	cell viability (Vero E6 [15]; 100 nM) [%]	cell viability (Vero E6 [15]; 1000 nM) [%]	cell viability (Vero E6 [15]; 10000 nM) [%]
CN(C)CCC=C1c2ccccc2CCc2ccccc21 [amitriptyline]	> 10	> 10	> 10	> 10	> 10	0	0.8	0	0	0	110	77.9	104	96.5	90.8	107	102	99.1	93	83.5	99.6	109	110	104	90.3	102	98.5	100	101	92.3	102	94	86.5	113	86.3
Clc1ccc(C(c2ccccc2Cl)C(Cl)Cl)cc1 (stereo not given) [mitotane]	> 10	> 10	> 10	> 10	> 10	0	0	0	0	0	100	90.7	97.9	99.4	91.9	89.9	89.9	87.9	85.4	94.6	92.8	102	89.1	97.1	99.6	98.5	93.2	98.6	97.7	97.7	106	96.6	101	101	97.6
NCCCCCC(O)(P(=O)(O)O)P(=O)(O)O [neridronic-acid]	> 10	> 10	> 10	> 10	> 10	0.6	0.3	0	0	0	108	95	88.9	107	76.5	100	110	111	97.9	86.2	90.2	83.3	92	93.9	106	99.9	95.9	98.8	92.8	108	91.5	95.8	92.8	94.2	96.8
COc1cc(OC)c(/C=C/S(=O)(=O)Cc2ccc(OC)c(OP(=O)(O)O)c2)c(OC)c1 [briciclib]	0.0392	0.0738	0.75	0.161	0.0246	17.5	17	7.4	17.5	25.5	106	103	45.1	42	42.9	113	108	56.1	36	38.7	101	108	94.9	65.2	41	102	104	73.4	23.7	18.2	95.9	92.2	23.6	21.2	26.9
O=C(NCCO)c1cccc(-c2cc(Nc3ccc(OC(F)(F)F)cc3)ncn2)c1 [GNF-5]	> 10	> 10	> 10	> 10	> 10	0.4	0	0	0	0	94.1	92.7	95.3	107	78.5	99.5	95.2	98.2	98.1	89.4	102	99.4	89.8	107	94	95.7	101	98.5	106	98.5	91.5	97.4	94.6	105	102
O=C(O)c1ccc2c(c1)nc(Nc1cccc(Cl)c1)c1ccncc12 [CX-4945]	> 10	> 10	> 10	> 10	> 10	0	0.7	0.3	1.1	0.4	98.7	95.2	92	95.6	97.7	106	109	92	102	77	111	103	111	101	83.2	102	101	101	88.4	84.8	101	98.4	101	95.1	86.5
COc1ccc([C@]2(C#N)CC[C@@H](C(=O)O)CC2)cc1OC1CCCC1 [cilomilast]	> 10	> 10	> 10	> 10	> 10	0	0	0.3	0	0	98.3	91.3	106	106	100	89.4	93.6	98.3	97.2	104	97.8	112	102	88.9	95.9	103	97.4	99.7	100	100	88.2	98.7	89.8	95.9	97.9
CCOC(=O)c1c(/C(C#N)=C\N)c2ccc(Cl)c(Cl)c2n1C [KH-CB19]	> 10	> 10	> 10	> 10	> 10	0	0	0	0	0	101	93.6	103	99.2	92.4	99.8	105	98.7	102	93.2	98.2	97.7	96.6	101	101	102	99.6	103	96.5	107	96.2	104	98.4	103	92
c1ccc(Oc2nc(NC3CCCCC3)c3[nH]cnc3n2)cc1 [MRS-3777]	> 10	> 10	> 10	> 10	> 10	0	0	0	0	1.1	87	104	99.6	109	100	110	97.5	88.7	99.2	99.4	92.7	95.7	102	104	101	97.5	98.8	97.5	108	103	98.7	96.2	93.5	97.2	78.2
CC(=O)[C@H]1CC[C@H]2[C@@H]3CC=C4C[C@@H](O)CC[C@]4(C)[C@H]3CC[C@]12C [pregnenolone]	> 10	> 10	> 10	> 10	> 10	0.3	0	0	0	0.4	97.1	95.9	88.9	90.4	90.4	98.9	96	99.6	92.7	93.6	96.8	101	101	97.1	98.6	91.5	96.4	93.5	99.1	94.7	102	104	99.5	88.4	95.2
Cc1ncc(-c2csc(N=C(N)N)n2)[nH]1 [zaltidine]	> 10	> 10	> 10	> 10	> 10	0	0	0	0	0	101	99	92.3	92.5	109	105	105	101	94.5	107	108	96	99.2	103	103	104	97.9	97.8	104	106	99.6	92.6	87.3	94.2	107
CCOC(=O)c1c(CSc2ccccc2)n(C)c2cc(Br)c(O)c(CN(C)C)c12 [arbidol]	> 10	> 10	> 10	> 10	> 10	0	0	0.9	0	0	94.9	88.1	94.4	96.7	88.2	96	104	108	104	97.2	94.5	96.7	96	96.8	81.6	98.3	92.8	96.8	92.4	93.8	92.9	96.6	92	104	101
COc1ccc(-c2coc3cc(O)cc(O)c3c2=O)cc1 [4-methylgenistein]	> 10	> 10	> 10	> 10	> 10	0	0	0	0	0	98.7	98.1	105	104	96	106	109	102	92.6	95.2	113	99	101	106	91	99.3	94.1	99.3	98.8	97.1	94	95	101	88.5	102
Cc1ccc(Nc2ncc3c(n2)N(C)C(=O)N(c2cc(NC(=O)c4cccc(C(F)(F)F)c4)ccc2C)C3)cn1 [GNF-7]	0.21	0.501	0.195	0.156	0.235	16.6	15.4	16.6	19	17.5	93.8	92.1	89.3	19.3	18.7	92.5	101	97.7	16.8	0.3	112	103	87.5	20.8	23.7	105	97.5	78.8	13.9	32.9	95.2	103	91	12	11.3
